The values below come from ChEMBL document CHEMBL5576112, “Synthesis, in silico, in vitro evaluation of furanyl- and thiophenyl-3-phenyl-1H-indole-2-carbohydrazide derivatives as tubulin inhibitors and anticancer agents” (RSC Med Chem, 2024).

Series [1] concerns NCI-H522. Nature of the series: Growth inhibition of human NCI-H522 cells measured after 48 hrs by sulforhodamine B assay. The format is functional. Particulars: for CC50: read-out: LC50 (the source's name).
Series [2] deals with SF-539. Nature of the series: Growth inhibition of human SF-539 cells measured after 48 hrs by sulforhodamine B assay. The format is functional. The following applies: for CC50: read-out: LC50 (the source's name).
In series [3] the test system is NCI/ADR-RES. Put plainly: Growth inhibition of human NCI-ADR-RES cells measured after 48 hrs by sulforhodamine B assay. The following applies: for CC50: read-out: LC50 (the source's name). The format is functional.
Series [4] relates to NCI-H522. Put plainly: Growth inhibition of human NCI-H522 cells at 10 uM measured after 48 hrs by sulforhodamine B assay. It counts as functional, cell-based.
For series [5], the system named is SF-539. Nature of the series: Growth inhibition of human SF-539 cells at 10 uM measured after 48 hrs by sulforhodamine B assay. The format is functional, cell-based.
In series [6] the test system is NCI/ADR-RES. Nature of the series: Growth inhibition of human NCI-ADR-RES cells at 10 uM measured after 48 hrs by sulforhodamine B assay. It counts as functional, cell-based.
Series [7] is filed under the species Sus scrofa. Nature of the series: Inhibition of porcine brain tubulin polymerization assessed as microtubule destabilization by measuring relative fluorescence unit at 10 uM measured at 60 secs interval for 60 mins in presence of GTP by fluorescence assay.
The subject of series [8] is COLO 205. Put plainly: Growth inhibition of human COLO 205 cells measured after 48 hrs by sulforhodamine B assay. It counts as functional. Particulars: for CC50: read-out: LC50 (the source's name).
Series [9] has as its system SK-MEL-5. Put plainly: Growth inhibition of human SK-MEL-5 cells measured after 48 hrs by sulforhodamine B assay. It counts as functional. The following applies: for CC50: read-out: LC50 (the source's name).
The subject of series [10] is SF-295. Put plainly: Growth inhibition of human SF-295 cells measured after 48 hrs by sulforhodamine B assay. The format is functional. Particulars: read-out: LC50 (the source's name).
In series [11] the test system is COLO 205. Put plainly: Growth inhibition of human COLO 205 cells at 10 uM measured after 48 hrs by sulforhodamine B assay. It counts as functional, cell-based.
Series [12] concerns SK-MEL-5. Nature of the series: Growth inhibition of human SK-MEL-5 cells at 10 uM measured after 48 hrs by sulforhodamine B assay. It counts as functional, cell-based.
Series [13] has as its system SF-295. Nature of the series: Growth inhibition of human SF-295 cells at 10 uM measured after 48 hrs by sulforhodamine B assay. It counts as functional, cell-based.
For series [14], the species on record is Sus scrofa. Nature of the series: Inhibition of porcine brain tubulin polymerization assessed as microtubule destabilization at 10 uM measured at 60 secs interval for 60 mins in presence of GTP by fluorescence assay.
The test system of series [15] is MDA-MB-231. Put plainly: Cell cycle arrest in human MDA-MB-231 cells assessed as accumulation of cells at G0/G1 phase at 10 uM measured after 24 hrs by Muse cell analyzer based assay (reference value: 59.7%). The format is functional.
Series [16] relates to MDA-MB-231. Nature of the series: Cell cycle arrest in human MDA-MB-231 cells assessed as accumulation of cells at S phase at 10 uM measured after 24 hrs by Muse cell analyzer based assay (reference value: 12.9%). It counts as functional.
Series [17] has as its system MDA-MB-231. Put plainly: Cell cycle arrest in human MDA-MB-231 cells assessed as accumulation of cells at G2/M phase at 10 uM measured after 24 hrs by Muse cell analyzer based assay (reference value: 27.3%). It counts as functional.
In series [18] the test system is MDA-MB-231. Put plainly: Induction of morphological changes in human MDA-MB-231 cells assessed as loss of cell polarity at 10 uM measured after 24 hrs. The format is functional, cell-based.
Series [19] relates to MDA-MB-231. Put plainly: Induction of apoptosis in human MDA-MB-231 cells assessed as viable cells at 10 uM measured after 24 hrs by Annexin V/7-AAD double staining based muse cell analyzer method (reference value: 96.21%). The format is functional. Particulars: read-out: Activity.
In series [20] the test system is MDA-MB-231. Nature of the series: Induction of apoptosis in human MDA-MB-231 cells assessed as early apoptotic cells at 10 uM measured after 24 hrs by Annexin V/7-AAD double staining based muse cell analyzer method (reference value: 1.64%). The format is functional.
Series [21] deals with MDA-MB-231. Nature of the series: Induction of apoptosis in human MDA-MB-231 cells assessed as late apoptotic cells at 10 uM measured after 24 hrs by Annexin V/7-AAD double staining based muse cell analyzer method (reference value: 1.44%). It counts as functional.
In series [22] the test system is MDA-MB-231. Nature of the series: Induction of apoptosis in human MDA-MB-231 cells assessed as necrotic cells at 10 uM measured after 24 hrs by Annexin V/7-AAD double staining based muse cell analyzer method (reference value: 0.72%). It counts as functional.
Series [23] can be described thus: Cytotoxicity against human HaCaT cells assessed as reduction in cell viability measured after 48 hrs by MTT assay. It counts as toxicity, cell-based.
Series [24] deals with MDA-MB-231. Nature of the series: Cytotoxicity against human MDA-MB-231 cells assessed as reduction in cell viability measured after 48 hrs by MTT assay. The format is functional, cell-based. Particulars: MDA-MB-231, 48 h.
The test system of series [25] is MDA-MB-435. Put plainly: Growth inhibition of human MDA-MB-435 cells measured after 48 hrs by sulforhodamine B assay. It counts as functional. The following applies: for CC50: read-out: LC50 (the source's name).
Series [26] deals with MDA-MB-435. Nature of the series: Growth inhibition of human MDA-MB-435 cells at 10 uM measured after 48 hrs by sulforhodamine B assay. The format is functional, cell-based.

Active and inactive are the calls of the source. No cut-off for these calls is given here. Where only a bound is given, the exact number is not on record here.

Turning to `O=C(N/N=C/c1ccc(Cl)s1)c1[nH]c2ccc(Br)cc2c1-c1ccccc1`, the GI50 with NCI-H522 [1], in the series with SF-539 [2] and in the series on NCI/ADR-RES [3] was less than 100 nM throughout. For the same compound, the CC50 with NCI-H522 [1], in the series with SF-539 [2] and in the series on NCI/ADR-RES [3] was more than 10000 nM each time. Further, the “growth inhibition (GI)” value in the series with NCI-H522 [4], with SF-539 [5] and in the series on NCI/ADR-RES [6] was “Active” in each case.
For the compound `O=C(N/N=C/c1ccc(-c2ccc(O)cc2)o1)c1[nH]c2ccc(Br)cc2c1-c1ccccc1`, the RFU in the series listed under Sus scrofa [7] came out at 45 a.u. The CC50 with COLO 205 [8] stood at 7210 nM; with SK-MEL-5 [9], 4140 nM; in the series with SF-295 [10], 8090 nM. Further, the “growth inhibition (GI)” value in the series with COLO 205 [11], in the series with SK-MEL-5 [12] and in the series with SF-295 [13] was “Active” each time.
Take `COc1ccc(/C=N/NC(=O)c2[nH]c3ccc(Br)cc3c2-c2ccccc2)s1`: in the series filed under Sus scrofa [7], the RFU is 45 a.u. Moreover, the inhibition entry in the series listed under Sus scrofa [14] is “inactive”. Besides, the Activity was 17.9% in the series on MDA-MB-231 [15]; 11.2% in the series with MDA-MB-231 [16]; 70.7% with MDA-MB-231 [17]; 3.48% in the series with MDA-MB-231 [20]; 6.21% in the series with MDA-MB-231 [21]; 5.13% in the series on MDA-MB-231 [22]. Moreover, the outcome in the series with MDA-MB-231 [18] was Active. Besides, in the series on MDA-MB-231 [19], the viability at 10 µM was 85.2%. Besides, in series [23], the IC50 at 48 h is 340 nM. Also, the IC50 in the series on MDA-MB-231 [24] stood at 560 nM. Besides, the GI50 with NCI-H522 [1] came to 19.3 nM; in the series with COLO 205 [8], 191 nM; with MDA-MB-435 [25] it was 25.3 nM; with SK-MEL-5 [9], 52.3 nM. The CC50 in the series with NCI-H522 [1] was more than 100000 nM; with COLO 205 [8], 719 nM; in the series with MDA-MB-435 [25], more than 100000 nM; with SK-MEL-5 [9], more than 100000 nM. Further, the “growth inhibition (GI)” value with NCI-H522 [4], with COLO 205 [11], in the series with MDA-MB-435 [26] and with SK-MEL-5 [12] was “Active” in each case.
`O=C(N/N=C/c1ccc(Br)s1)c1[nH]c2ccc(Br)cc2c1-c1ccccc1`: the GI50 in the series with NCI-H522 [1], in the series on SF-539 [2] and in the series with NCI/ADR-RES [3] was less than 100 nM throughout. For the same compound, the CC50 in the series with NCI-H522 [1], with SF-539 [2] and with NCI/ADR-RES [3] was more than 10000 nM in each case. The “growth inhibition (GI)” value in the series on NCI-H522 [4], in the series on SF-539 [5] and in the series with NCI/ADR-RES [6] was “Active” throughout.
As for `COc1ccsc1/C=N/NC(=O)c1[nH]c2ccc(Br)cc2c1-c1ccccc1`, the RFU in the series filed under Sus scrofa [7] was determined as 20 a.u. For the same compound, the Activity in the series on MDA-MB-231 [15] is recorded as 19.6%; in the series with MDA-MB-231 [16], 10.2%; in the series on MDA-MB-231 [17] it was 70%; in the series on MDA-MB-231 [20], 3.55%; in the series on MDA-MB-231 [21], 5.7%; with MDA-MB-231 [22], 4.98%. Besides, the outcome in the series on MDA-MB-231 [18] was Active. Besides, the viability at 10 µM in the series with MDA-MB-231 [19] turned out to be 85.8%. Further, the IC50 at 48 h in series [23] worked out at 540 nM. For the same compound, the half-maximal inhibitory concentration (IC50) in the series on MDA-MB-231 [24] is 4130 nM. Also, the 50% growth inhibitory concentration (GI50) with NCI-H522 [1] amounted to 213 nM; with COLO 205 [8], 435 nM; in the series with MDA-MB-435 [25] it was 240 nM; with SK-MEL-5 [9] it was 321 nM. Also, the CC50 in the series on NCI-H522 [1] was 8560 nM; with COLO 205 [8], 5920 nM; with MDA-MB-435 [25], more than 100000 nM; in the series on SK-MEL-5 [9], more than 100000 nM. In addition, the “growth inhibition (GI)” value in the series with NCI-H522 [4], with COLO 205 [11], with MDA-MB-435 [26] and in the series with SK-MEL-5 [12] was “Active” each time.
Take `COc1csc(/C=N/NC(=O)c2[nH]c3ccc(Br)cc3c2-c2ccccc2)c1`: the inhibition result in the series listed under Sus scrofa [14] is “inactive”. The Activity in the series with MDA-MB-231 [15] amounted to 15.6%; in the series on MDA-MB-231 [16], 10%; in the series with MDA-MB-231 [17], 74.5%; in the series on MDA-MB-231 [20] it was 6.44%; with MDA-MB-231 [21], 20.25%; in the series with MDA-MB-231 [22], 6.61%. Further, the outcome in the series with MDA-MB-231 [18] was Active. The viability at 10 µM with MDA-MB-231 [19] was determined as 66.7%. In addition, the IC50 at 48 h in series [23] was 30 nM. Also, the IC50 in the series with MDA-MB-231 [24] amounted to 160 nM. For the same compound, the GI50 with NCI-H522 [1] is less than 10 nM; in the series with COLO 205 [8], 19.1 nM; with MDA-MB-435 [25] it was 19.1 nM; in the series with SK-MEL-5 [9], 18.6 nM. Besides, the CC50 with NCI-H522 [1] was more than 100000 nM; in the series with COLO 205 [8], 70.8 nM; in the series on MDA-MB-435 [25] it was 259 nM; in the series on SK-MEL-5 [9], 74.9 nM. Also, the “growth inhibition (GI)” value in the series with NCI-H522 [4], with COLO 205 [11], in the series on MDA-MB-435 [26] and in the series on SK-MEL-5 [12] was “Active” in each case.
